Results on 15 molecules are retold here after US20220041606A1, “POSITIVE ALLOSTERIC MODULATORS OF THE MUSCARINIC ACETYLCHOLINE RECEPTOR M1” (Vanderbilt University, priority 2020, published 2022).

Experiment [1] addresses T1, human mAChR M1 (Homo sapiens, UniProt P11229).
T1 construct: host or cells: CHO-K1 cells (ATCC), stably transfected using Lipofectamine2000
T1 sequence (P11229 1-460): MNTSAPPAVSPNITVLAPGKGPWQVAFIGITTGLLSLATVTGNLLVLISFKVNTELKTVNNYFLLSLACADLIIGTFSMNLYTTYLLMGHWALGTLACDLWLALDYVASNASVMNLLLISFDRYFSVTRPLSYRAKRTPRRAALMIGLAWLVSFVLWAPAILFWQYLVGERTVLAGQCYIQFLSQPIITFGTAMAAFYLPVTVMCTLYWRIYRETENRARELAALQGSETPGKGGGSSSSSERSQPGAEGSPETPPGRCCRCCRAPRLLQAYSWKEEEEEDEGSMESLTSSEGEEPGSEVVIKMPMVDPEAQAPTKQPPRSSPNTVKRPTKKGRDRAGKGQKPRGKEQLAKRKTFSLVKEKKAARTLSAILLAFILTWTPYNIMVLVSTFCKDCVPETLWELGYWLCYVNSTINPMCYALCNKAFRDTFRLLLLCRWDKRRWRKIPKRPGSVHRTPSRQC
The experiment in a line: mAChR M1 cell-based functional assay (calcium mobilization), PAM activity: increase in the EC20 acetylcholine response. The following applies: CHO-K1 cells expressing hM1; potentiation of EC20 acetylcholine response. Put shortly:
(§1)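 CHO-K1 cells stably expressing hM1, loaded with Fluo-4 AM; calcium flux read on FDSS 6000. Compound (11-point, 1:3 CRC) added at 4 s, EC20 acetylcholine at 144 s, EC80 at 230 s; agonism from response to compound alone, PAM from increase in EC20 response; Emax relative to acetylcholine maximum, four-parameter fit.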
For orientation: A change in cytosolic calcium serves as a functional read-out for many receptors and channels.

Experiment [2] concerns the target T1, human mAChR M1. The experiment in a line: mAChR M1 cell-based functional assay (calcium mobilization), agonist activity upon compound addition. The following applies: CHO-K1 cells expressing hM1; for EC50: compound alone, before acetylcholine addition; for Emax: relative to the maximum for acetylcholine. An outline of the steps:
as §1

Molecules are shown by their SMILES.

By EC50 is commonly meant the concentration giving half of the maximal effect. By Emax is commonly meant the maximal effect, on the per cent scale that the assay sets. In the case of `Cn1cc(-c2ccc(Cn3cc(C(=O)N[C@H]4CCCC[C@@H]4O)c4nccnc4c3=O)c(F)c2)cn1` [Compound A54, 6-(2-fluoro-4-(1-methyl-1H-pyrazol-4-yl)benzyl)-N-((1S,2S)-2-hydroxycyclohexyl)-5-oxo-5,6-dihydropyrido[3,4-b]pyrazine-8-carboxamide], the EC50 on human mAChR M1 [1] was 2.37 µM; at human mAChR M1 [2], greater than 10 µM. Also, the Emax at human mAChR M1 [1] is 62%; at human mAChR M1 [2], 26%.
For the molecule `Cn1cc(-c2ccc(Cn3cc(C(=O)NCC(O)C(F)(F)F)c4nccnc4c3=O)c(F)c2)cn1` (centres unmarked) [Compound A81, 6-(2-fluoro-4-(1-methyl-1H-pyrazol-4-yl)benzyl)-5-oxo-N-(3,3,3-trifluoro-2-hydroxypropyl)-5,6-dihydropyrido[3,4-b]pyrazine-8-carboxamide], at human mAChR M1 [1], the EC50 is no less than 10 µM and the Emax amounted to 33%. In addition, at human mAChR M1 [2], the EC50 was greater than 10 µM and the maximum response (Emax) was less than 5%.
Taken in the same sequence, the figures for `Cn1cc2c(-c3cc(F)c(Cn4cc(C(=O)N[C@H]5CCCCC[C@@H]5O)c5sccc5c4=O)c(F)c3)cccc2n1` [Compound D33, 5-(2,6-difluoro-4-(2-methyl-2H-indazol-4-yl)benzyl)-N-((1S,2S)-2-hydroxycycloheptyl)-4-oxo-4,5-dihydrothieno[3,2-c]pyridine-7-carboxamide] were 5.29 µM, 42%, greater than 10 µM and less than 5%.
As to `Cn1cc2c(-c3cc(F)c(Cn4cc(C(=O)N[C@H]5CCCCC[C@@H]5O)c5ncccc5c4=O)c(F)c3)cccc2n1` [Compound A23, 6-(2,6-difluoro-4-(2-methyl-2H-indazol-4-yl)benzyl)-N-((1S,2S)-2-hydroxycycloheptyl)-5-oxo-5,6-dihydro-1,6-naphthyridine-8-carboxamide], the EC50 was 0.21 µM at human mAChR M1 [1] and greater than 10 µM on human mAChR M1 [2]. Moreover, the Emax on human mAChR M1 [1] is 67%; at human mAChR M1 [2], less than 5%.
As to `Cn1cc2c(-c3cc(F)c(Cn4cc(C(=O)NC5CCOCC5)c5occc5c4=O)c(F)c3)cccc2n1` [Compound D23, 5-(2,6-difluoro-4-(2-methyl-2H-indazol-4-yl)benzyl)-4-oxo-N-(tetrahydro-2H-pyran-4-yl)-4,5-dihydrofuro[3,2-c]pyridine-7-carboxamide], the figures for the EC50 on human mAChR M1 [1] and on human mAChR M1 [2] were 4.12 µM and greater than 10 µM, respectively. The Emax on human mAChR M1 [1] is 64%; on human mAChR M1 [2], less than 5%.
Take `Cn1nccc1-c1ccc(Cn2cc(C(=O)N[C@H]3CCC[C@@H]3O)c3nccn3c2=O)c(F)c1` [Compound B33, 6-(2-fluoro-4-(1-methyl-1H-pyrazol-5-yl)benzyl)-N-((1S,2S)-2-hydroxycyclopentyl)-5-oxo-5,6-dihydroimidazo[1,2-c]pyrimidine-8-carboxamide]: at human mAChR M1 [1], the EC50 came out at 2.23 µM and the Emax amounted to 57%. Moreover, on human mAChR M1 [2], the EC50 was greater than 10 µM and the Emax is less than 5%.
Turning to `Cn1cc(-c2ccc(Cn3cc(C(=O)N[C@@H]4CC[C@H]4O)c4occc4c3=O)c(F)c2)cn1` (stereo in doubt) [Compound D15, 5-(2-fluoro-4-(1-methyl-1H-pyrazol-4-yl)benzyl)-N-((1R,2R)-2-hydroxycyclobutyl)-4-oxo-4,5-dihydrofuro[3,2-c]pyridine-7-carboxamide], on human mAChR M1 [1], the EC50 is greater than 10 µM and the Emax was 29%. Besides, on human mAChR M1 [2], the EC50 is greater than 10 µM and the Emax was less than 5%.
As to `Cc1cc(-c2cc(F)c(Cn3cc(C(=O)N[C@H]4CCCC[C@@H]4O)c4ncccc4c3=O)c(F)c2)ccn1` [Compound A37, 6-(2,6-difluoro-4-(2-methylpyridin-4-yl)benzyl)-N-((1S,2S)-2-hydroxycyclohexyl)-5-oxo-5,6-dihydro-1,6-naphthyridine-8-carboxamide], at human mAChR M1 [1], the EC50 was determined as 0.78 µM and the Emax was 46%. Further, at human mAChR M1 [2], the concentration for a half-maximal effect (EC50) was greater than 10 µM and the Emax is less than 5%.
Take `Cn1ccc(-c2ccc(Cn3cc(C(=O)N[C@H]4CCCCC[C@@H]4O)c4nccnc4c3=O)c(F)c2)n1` [Compound A65, 6-(2-fluoro-4-(1-methyl-1H-pyrazol-3-yl)benzyl)-N-((1S,2S)-2-hydroxycycloheptyl)-5-oxo-5,6-dihydropyrido[3,4-b]pyrazine-8-carboxamide]: at human mAChR M1 [1], the EC50 is 5.25 µM and the Emax is 63%. Moreover, on human mAChR M1 [2], the EC50 is greater than 10 µM and the Emax came to 6%.
As to `Cn1cc(-c2ccc(Cn3cc(C(=O)N[C@@H]4CC[C@H]4O)c4ncccc4c3=O)c(F)c2)cn1` [Compound A9, 6-(2-fluoro-4-(1-methyl-1H-pyrazol-4-yl)benzyl)-N-((1R,2R)-2-hydroxycyclobutyl)-5-oxo-5,6-dihydro-1,6-naphthyridine-8-carboxamide], at human mAChR M1 [1], the EC50 is 5.87 µM and the Emax was 65%. On human mAChR M1 [2], the EC50 is greater than 10 µM and the Emax was less than 5%.
Regarding `Cc1cccc(-c2cc(F)c(Cn3cc(C(=O)N[C@H]4CCOC[C@@H]4O)c4ncccc4c3=O)c(F)c2)c1` [Compound A31, 6-((3,5-difluoro-3′-methyl-[1,1′-biphenyl]-4-yl)methyl)-N-((3R,4S)-3-hydroxytetrahydro-2H-pyran-4-yl)-5-oxo-5,6-dihydro-1,6-naphthyridine-8-carboxamide], at human mAChR M1 [1], the 50% effective concentration (EC50) is 2.6 µM and the maximal response (Emax) is 70%. In addition, at human mAChR M1 [2], the EC50 is greater than 10 µM and the Emax was less than 5%.
With `Cc1nc(-c2ccc(Cn3cc(C(=O)N[C@H]4CCOC[C@@H]4O)c4ncccc4c3=O)cc2)co1` [Compound A19, N-((3R,4S)-3-hydroxytetrahydro-2H-pyran-4-yl)-6-(4-(2-methyloxazol-4-yl)benzyl)-5-oxo-5,6-dihydro-1,6-naphthyridine-8-carboxamide], at human mAChR M1 [1], the EC50 stood at 2.49 µM and the Emax was 67%. Also, the Emax on human mAChR M1 [2] was 20%.
As for `Cn1ccc(-c2ccc(Cn3cc(C(=O)N[C@H]4CCCC[C@@H]4O)c4occc4c3=O)c(F)c2)n1` [Compound D7, 5-(2-fluoro-4-(1-methyl-1H-pyrazol-3-yl)benzyl)-N-((1S,2S)-2-hydroxycyclohexyl)-4-oxo-4,5-dihydrofuro[3,2-c]pyridine-7-carboxamide], the values for the EC50 at human mAChR M1 [1] and at human mAChR M1 [2] were 6.05 µM and greater than 10 µM, respectively. The maximal effect (Emax) at human mAChR M1 [1] is 82%; at human mAChR M1 [2], less than 5%.
On to `Cc1cncc(-c2cc(F)c(Cn3cc(C(=O)N[C@H]4CCC[C@@H]4O)c4ncccc4c3=O)c(F)c2)c1` [Compound A44, 6-(2,6-difluoro-4-(5-methylpyridin-3-yl)benzyl)-N-((1S,2S)-2-hydroxycyclopentyl)-5-oxo-5,6-dihydro-1,6-naphthyridine-8-carboxamide], for which, at human mAChR M1 [1], the EC50 is no less than 10 µM and the Emax came out at 26%. Further, at human mAChR M1 [2], the 50% effective concentration (EC50) is greater than 10 µM and the Emax is less than 5%.
On to `Cc1cccc(-c2ccc(Cn3cc(C(=O)N[C@H]4CCOC[C@@H]4O)c4ncccc4c3=O)c(F)c2)c1` [Compound A29, 6-((3-fluoro-3′-methyl-[1,1′-biphenyl]-4-yl)methyl)-N-((3R,4S)-3-hydroxytetrahydro-2H-pyran-4-yl)-5-oxo-5,6-dihydro-1,6-naphthyridine-8-carboxamide], for which, on human mAChR M1 [1], the EC50 worked out at 4.84 µM and the Emax stood at 61%. Further, on human mAChR M1 [2], the concentration for a half-maximal effect (EC50) was greater than 10 µM and the Emax is less than 5%.
